Experimental findings from article PMC4489319 (ACS Infectious Diseases, 2015) are described below.

Assay [1] addresses ChsE4-ChsE5 (Mycobacterium tuberculosis, UniProt I6YCA3).
The target of assay [2] is T1, ChsE4 (Rv3504, formerly FadE26), N-terminal His6 tag (Mycobacterium tuberculosis H37Rv, UniProt I6YCA3 1-400).
T1 sequence: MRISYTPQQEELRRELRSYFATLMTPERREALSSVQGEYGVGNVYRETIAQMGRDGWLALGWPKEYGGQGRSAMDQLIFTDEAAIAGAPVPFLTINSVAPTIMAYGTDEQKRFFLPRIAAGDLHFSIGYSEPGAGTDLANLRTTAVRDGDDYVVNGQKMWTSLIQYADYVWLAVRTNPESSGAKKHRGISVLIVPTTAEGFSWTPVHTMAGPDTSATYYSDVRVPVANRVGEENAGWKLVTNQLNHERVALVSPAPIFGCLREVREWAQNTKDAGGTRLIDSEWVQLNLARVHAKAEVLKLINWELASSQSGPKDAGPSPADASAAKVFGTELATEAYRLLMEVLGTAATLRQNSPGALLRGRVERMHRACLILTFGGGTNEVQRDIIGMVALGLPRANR
The assay is described as follows: AUC + other: LC/UV/MS.

As a reminder, the KM is the concentration of substrate that gives half-maximal velocity.

As to `CC(CCC[C@@H](C)[C@H]1CC[C@H]2[C@@H]3CCC4=CC(=O)CC[C@]4(C)[C@H]3CC[C@]12C)C(=O)SCCNC(=O)CCNC(=O)[C@H](O)C(C)(C)COP(=O)(O)OP(=O)(O)OC[C@H]1O[C@@H](n2cnc3c(N)ncnc32)[C@H](O)[C@@H]1OP(=O)(O)O` (some centres unmarked) [3-OCS-CoA], the “KM” value in assay [1] was 20 ± 2.7 µM.

B1: ChsE5 (Rv3505, formerly FadE27) (enzyme)
chain: MDFTTTEAAQDLGGLVDTIVDAVCTPEHQRELDKLEQRFDRELWRKLIDAGILSSAAPESLGGDGFGVLEQVAVLVALGHQLAAVPYLESVVLAAGALARFGSPELQQGWGVSAVSGDRILTVALDGEMGEGPVQAAGTGHGYRLTGTRTQVGYGPVADAFLVPAETDSGAAVFLVAAGDPGVAVTALATTGLGSVGHLELNGAKVDAARRVGGTDVAVWLGTLSTLSRTAFQLGVLERGLQMTAEYARTREQFDRPIGSFQAVGQRLADGYIDVKGLRLTLTQAAWRVAEDSLASRECPQPADIDVATAGFWAAEAGHRVAHTIVHVHGGVGVDTDHPVHRYFLAAKQTEFALGGATGQLRRIGRELAETPA
Turning to B1, in assay [2], the binding result is on record as “binds”.
